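Five concentrations, 48 hours, 96-well plates. Definition used: TGI = concentration required for complete inhibition of growth.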

What all share (test): NCI anticancer screen, dose series, 48 h
Assay [1] deals with 786-0 renal.
Assay [2] concerns A498 renal.
The subject of assay [3] is A549 NSCLC.
Assay [4] relates to BT-549 breast.
The test system of assay [5] is CAKI-1 renal.
The test system of assay [6] is HCT-15 colon.
In assay [7] the test system is HOP-92 NSCLC.
The subject of assay [8] is HT29 colon.
The test system of assay [9] is IGROV1 ovarian.
The test system of assay [10] is K-562 leukemia.
Assay [11] has as its system LOX IMVI melanoma.
The subject of assay [12] is M14 melanoma.
The subject of assay [13] is MCF7 breast.
The subject of assay [14] is MDA-MB-435.
For assay [15], the system named is RPMI-8226 leukemia.
Assay [16] deals with RXF 393 renal.
Assay [17] relates to SK-MEL-28 melanoma.
Assay [18] concerns SNB-75 CNS.
In assay [19] the test system is U251 CNS.
Assay [20] has as its system UO-31 renal.

With `O=C(O)CCC(=O)Nc1ccc2ccccc2c1`, the TGI in assay [1], in [2], in assay [3], in assay [4], in assay [5] and in assay [6] was greater than 100 µM each time. Further, the TGI in assay [7], in assay [8], in assay [9], in assay [10], in [11] and in assay [12] was greater than 100 µM in each case. In addition, the TGI in assay [13], in [14], in assay [15], in assay [16], in assay [17] and in assay [18] was greater than 100 µM throughout. Besides, the TGI in assay [19] and in [20] was greater than 100 µM throughout.

Regarding `O=c1[nH]nc(-c2ccccc2)n1/N=C/c1ccc([N+](=O)[O-])cc1`, the TGI is 22.9 µM in [1]; 49.7 µM in assay [2]; greater than 100 µM in assay [3]; greater than 100 µM in [4]; greater than 59.3 µM in [5]; greater than 100 µM in assay [6]. Moreover, the TGI in assay [7] is 32 µM; in assay [8], greater than 100 µM; in assay [9] it was greater than 100 µM; in [10] it was greater than 100 µM; in assay [11], greater than 100 µM; in assay [12] it was greater than 100 µM. Besides, the TGI was greater than 100 µM in [13]; greater than 100 µM in assay [14]; greater than 100 µM in assay [15]; 28.1 µM in [16]; greater than 100 µM in assay [17]; 34.9 µM in assay [18]. In addition, the TGI in [19] is 20.8 µM; in [20] it was greater than 38.1 µM.

These data come from PubChem BioAssay (NCI).
